From PubChem BioAssay (NCI)
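Cultured in 96-well plates, cells were exposed to test compound for 48 hours across five concentrations. GI50 marks 50% less growth. Definition used: TGI = concentration required for complete inhibition of growth.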

Tests used:
Experiment in all cases: DTP human tumour cell line panel, 48 h
DLD-1 colon = test system: DLD-1 colon
RXF 393 renal = test system: RXF 393 renal
SNB-78 CNS = test system: SNB-78 CNS
MALME-3M melanoma = test system: MALME-3M melanoma
SW-620 colon = test system: SW-620 colon
SN12C renal = test system: SN12C renal
NCI-H460 lung = test system: NCI-H460 lung
M14 melanoma = test system: M14 melanoma
U251 CNS = test system: U251 CNS
OVCAR-3 ovarian = test system: OVCAR-3 ovarian
SF-295 CNS = test system: SF-295 CNS
SF-268 CNS = test system: SF-268 CNS
NCI-H23 lung = test system: NCI-H23 lung
DMS 273 small cell lung = test system: DMS 273 small cell lung
RPMI-8226 leukemia = test system: RPMI-8226 leukemia
OVCAR-4 ovarian = test system: OVCAR-4 ovarian
HCT-15 colon = test system: HCT-15 colon
SK-MEL-5 melanoma = test system: SK-MEL-5 melanoma
SK-MEL-2 melanoma = test system: SK-MEL-2 melanoma
786-0 renal = test system: 786-0 renal
SF-539 CNS = test system: SF-539 CNS
NCI-H522 lung = test system: NCI-H522 lung
M19-MEL melanoma = test system: M19-MEL melanoma
CAKI-1 renal = test system: CAKI-1 renal
KM20L2 colon = test system: KM20L2 colon
TK-10 renal = test system: TK-10 renal
KM12 colon = test system: KM12 colon
LOX IMVI melanoma = test system: LOX IMVI melanoma
A549 NSCLC = test system: A549 NSCLC
A498 renal = test system: A498 renal
SNB-19 CNS = test system: SNB-19 CNS
HCT-116 colon = test system: HCT-116 colon
MOLT-4 leukemia = test system: MOLT-4 leukemia
UACC-257 melanoma = test system: UACC-257 melanoma
HL-60(TB) leukemia = test system: HL-60(TB) leukemia
HOP-18 NSCLC = test system: HOP-18 NSCLC
CCRF-CEM leukemia = test system: CCRF-CEM leukemia
HOP-62 NSCLC = test system: HOP-62 NSCLC
SK-OV-3 ovarian = test system: SK-OV-3 ovarian
OVCAR-8 ovarian = test system: OVCAR-8 ovarian
LXFL 529 NSCLC = test system: LXFL 529 NSCLC
NCI-H226 lung = test system: NCI-H226 lung
IGROV1 ovarian = test system: IGROV1 ovarian
COLO 205 colon = test system: COLO 205 colon
SNB-75 CNS = test system: SNB-75 CNS
XF 498 CNS = test system: XF 498 CNS
UO-31 renal = test system: UO-31 renal
UACC-62 melanoma = test system: UACC-62 melanoma
HCC-2998 colon = test system: HCC-2998 colon
K-562 leukemia = test system: K-562 leukemia
ACHN renal = test system: ACHN renal
HOP-92 NSCLC = test system: HOP-92 NSCLC
HT29 colon = test system: HT29 colon
SK-MEL-28 melanoma = test system: SK-MEL-28 melanoma

SMILES: N[C@@H]1CCCC[C@@H]1N.O=P([O-])([O-])CNCP(=O)([O-])[O-].[Pt+2]
- GI50 (DLD-1 colon): > 100 µM
- TGI (DLD-1 colon): > 100 µM
- GI50 (RXF 393 renal): > 100 µM
- TGI (RXF 393 renal): > 100 µM
- GI50 (SNB-78 CNS): > 100 µM
- TGI (SNB-78 CNS): > 100 µM
- GI50 (MALME-3M melanoma): > 100 µM
- TGI (MALME-3M melanoma): > 100 µM
- GI50 (SW-620 colon): > 100 µM
- TGI (SW-620 colon): > 100 µM
- GI50 (SN12C renal): > 100 µM
- TGI (SN12C renal): > 100 µM
- GI50 (NCI-H460 lung): > 100 µM
- TGI (NCI-H460 lung): > 100 µM
- GI50 (M14 melanoma): > 100 µM
- TGI (M14 melanoma): > 100 µM
- GI50 (U251 CNS): > 100 µM
- TGI (U251 CNS): > 100 µM
- GI50 (OVCAR-3 ovarian): > 100 µM
- TGI (OVCAR-3 ovarian): > 100 µM
- GI50 (SF-295 CNS): > 100 µM
- TGI (SF-295 CNS): > 100 µM
- GI50 (SF-268 CNS): > 100 µM
- TGI (SF-268 CNS): > 100 µM
- GI50 (NCI-H23 lung): > 100 µM
- TGI (NCI-H23 lung): > 100 µM
- GI50 (DMS 273 small cell lung): > 100 µM
- TGI (DMS 273 small cell lung): > 100 µM
- GI50 (RPMI-8226 leukemia): > 100 µM
- TGI (RPMI-8226 leukemia): > 100 µM
- GI50 (OVCAR-4 ovarian): > 100 µM
- TGI (OVCAR-4 ovarian): > 100 µM
- GI50 (HCT-15 colon): > 100 µM
- TGI (HCT-15 colon): > 100 µM
- GI50 (SK-MEL-5 melanoma): > 100 µM
- TGI (SK-MEL-5 melanoma): > 100 µM
- GI50 (SK-MEL-2 melanoma): > 100 µM
- TGI (SK-MEL-2 melanoma): > 100 µM
- GI50 (786-0 renal): > 100 µM
- TGI (786-0 renal): > 100 µM
- GI50 (SF-539 CNS): > 100 µM
- TGI (SF-539 CNS): > 100 µM
- GI50 (NCI-H522 lung): > 100 µM
- TGI (NCI-H522 lung): > 100 µM
- GI50 (M19-MEL melanoma): > 100 µM
- TGI (M19-MEL melanoma): > 100 µM
- GI50 (CAKI-1 renal): > 100 µM
- TGI (CAKI-1 renal): > 100 µM
- GI50 (KM20L2 colon): > 100 µM
- TGI (KM20L2 colon): > 100 µM
- GI50 (TK-10 renal): > 100 µM
- TGI (TK-10 renal): > 100 µM
- GI50 (KM12 colon): > 100 µM
- TGI (KM12 colon): > 100 µM
- GI50 (LOX IMVI melanoma): > 100 µM
- TGI (LOX IMVI melanoma): > 100 µM
- GI50 (A549 NSCLC): > 100 µM
- TGI (A549 NSCLC): > 100 µM
- GI50 (A498 renal): > 100 µM
- TGI (A498 renal): > 100 µM
- GI50 (SNB-19 CNS): > 100 µM
- TGI (SNB-19 CNS): > 100 µM
- GI50 (HCT-116 colon): > 100 µM
- TGI (HCT-116 colon): > 100 µM
- GI50 (MOLT-4 leukemia): > 100 µM
- TGI (MOLT-4 leukemia): > 100 µM
- GI50 (UACC-257 melanoma): > 100 µM
- TGI (UACC-257 melanoma): > 100 µM
- GI50 (HL-60(TB) leukemia): > 100 µM
- TGI (HL-60(TB) leukemia): > 100 µM
- GI50 (HOP-18 NSCLC): > 100 µM
- TGI (HOP-18 NSCLC): > 100 µM
- GI50 (CCRF-CEM leukemia): > 100 µM
- TGI (CCRF-CEM leukemia): > 100 µM
- GI50 (HOP-62 NSCLC): > 100 µM
- TGI (HOP-62 NSCLC): > 100 µM
- GI50 (SK-OV-3 ovarian): > 100 µM
- TGI (SK-OV-3 ovarian): > 100 µM
- GI50 (OVCAR-8 ovarian): > 100 µM
- TGI (OVCAR-8 ovarian): > 100 µM
- GI50 (LXFL 529 NSCLC): > 100 µM
- TGI (LXFL 529 NSCLC): > 100 µM
- GI50 (NCI-H226 lung): > 100 µM
- TGI (NCI-H226 lung): > 100 µM
- GI50 (IGROV1 ovarian): > 100 µM
- TGI (IGROV1 ovarian): > 100 µM
- GI50 (COLO 205 colon): > 100 µM
- TGI (COLO 205 colon): > 100 µM
- GI50 (SNB-75 CNS): > 100 µM
- TGI (SNB-75 CNS): > 100 µM
- GI50 (XF 498 CNS): > 100 µM
- TGI (XF 498 CNS): > 100 µM
- GI50 (UO-31 renal): > 100 µM
- TGI (UO-31 renal): > 100 µM
- GI50 (UACC-62 melanoma): > 100 µM
- TGI (UACC-62 melanoma): > 100 µM
- GI50 (HCC-2998 colon): > 100 µM
- TGI (HCC-2998 colon): > 100 µM
- GI50 (K-562 leukemia): > 100 µM
- TGI (K-562 leukemia): > 100 µM
- GI50 (ACHN renal): > 100 µM
- TGI (ACHN renal): > 100 µM
- GI50 (HOP-92 NSCLC): > 100 µM
- TGI (HOP-92 NSCLC): > 100 µM
- GI50 (HT29 colon): > 100 µM
- TGI (HT29 colon): > 100 µM
- GI50 (SK-MEL-28 melanoma): > 100 µM
- TGI (SK-MEL-28 melanoma): > 100 µM
